Like-named read-outs stand apart in the source and are kept apart here. Marks after values point to notes of the source that are not given here.
Columns and labels:
[1] = system: ventricular papillary muscle cell of guinea pig; test: Action potential of the ventricular papillary muscle cell of guinea pig (electrophysiological recording); format: cell-based; details: for percent change in action potential duration at 0.0005 µM / percent change in action potential duration at 0.005 µM / percent change in action potential duration at 0.05 µM: Cavia porcellus, 20 min, read-out: APD, Change rate (%); for APD50, Pre-administration / APD90, Pre-administration: baseline; for Effect on the APD value of the action potential of the papillary muscle (in words): Table 3 summary
Protocol: Method: One guinea pig was taken to violently hit the back of the brain such that it fainted. The common carotid artery was cut off for bleeding to kill the guinea pig. The chest was incised to expose the heart, and the ventricle was cut open along the interventricular septum to expose the lumen of the left ventricle. The papillary muscles were quickly taken out and placed in a Kreb's solution saturated with O2 (mixed gas of 95% O2 and 5% CO2) at 0° C. After the microscopic dressing, the papillary muscle specimen was fixed with a stainless steel needle on the silicone rubber at the bottom of the perfusion bath, and perfused with the oxygen-saturated Kreb's solution. The relevant parameters for perfusion: the temperature was 37±0.5° C., and the flow rate was 4 mL/min.
Cellular action potentials were recorded using a conventional electrophysiological method. The glass electrode filled with 3M KCl saturated solution and having a tip resistance of 15-30 MΩ was fixed on the microelectrode manipulator MP-2. The glass electrode was gently inserted into the superficial layer of the prepared papillary muscle specimen using a microelectrode pusher. The electrode was adjusted to provide the predetermined bioelectrical stimulation with the triple-channel SEN-7203 electronic stimulator and SS-202 J isolator. The bioelectrical signal was amplified by the MEZ-8301 amplifier and then input to the computerized electrophysiological recording and analysis system Powerlab 4/25. Subsequently, the relevant parameters of the action potential for the ventricular papillary muscle were analyzed through the analysis system. The relevant parameters for electrical stimulation: 30 ms latency, 7 ms wavewidth, 1 Hz frequency, 52.1 my stimulation intensity.
In the compound screening test stage, after the ventricular papillary muscle specimen of the guinea pig was fixed, it was first perfused with a normal Kreb's solution for about 85 minutes for stabilization, and the relevant parameters of the cellular action potential before administration were recorded at about 80 min after the start of perfusion. The three-limb tube was used to convert the perfusates containing the title compounds. The title compounds were continuously perfused for about 25 min successively with low (0.0005 μM), medium (0.005 μM), and high (0.05 μM) concentrations, respectively. At about 20 min after the start of drug perfusions at different concentrations, the relevant parameters of the action potentials for the ventricular papillary muscle of guinea pig were observed and recorded, respectively. The normal Kreb's solution was used to perfuse and elute for about 25 min during the intervals between drug perfusions at different concentrations.
The experiment was divided into the following five groups with 6 animals in each group: a vehicle control group, a 369 low dose (0.0005 μM) group, a 369 medium dose (0.005 μM) group, a 369 high dose (0.05 μM) group, and an amiodarone (10 μM) positive control group. After the ventricular papillary muscle specimen of the guinea pig was fixed, it was first perfused with a normal Kreb's solution for about 85 minutes for stabilization, and the relevant parameters of the cellular action potential before administration were recorded at about 80 min after the start of perfusion. According to groups, the three-limb tube was configured to convert the perfusates containing the vehicle, positive control, or Compound 369 at the corresponding concentrations to continuously perfuse for about 25 min. At about 20 min after the start of the perfusions, the relevant parameters of the action potentials for the ventricular papillary muscle of guinea pig were observed and recorded.

[2] = system: SD rats; test: Rat myocardial ischemia model with coronary artery ligation and reperfusion (arrhythmia incidence); format: in vivo; details: for Death (%) / Death n / Ventricular fibrillation (%) / Ventricular fibrillation n / Ventricular premature beat (%) / Ventricular premature beat n / Ventricular tachycardia (%) / Ventricular tachycardia n: injection (sublingually) 5 min before ischemia
From the text: Method: SD rats were anesthetized with pentobarbital, and a cervical midline incision was made to separate and cut off the trachea such that it was connected to a respirator. The skin was cut along the midline of the left clavicle of the rat, and the chest was opened between the left third and fourth ribs to gently squeeze out the heart. The pericardium was opened, the needle was inserted at the left edge of the pulmonary artery cone and 2 mm at the lower edge of the left atrial appendage. The 6-0 non-invasive suture was threaded through the superficial myocardium, with the left anterior descending coronary artery (LAD) located thereon. After stabilization for 5 min, a double-layer plastic cannula was put on, and the cable tie was tighten to complete the myocardial ischemia induced by left coronary artery occlusion. The criterion for myocardial ischemia is the occurrence of myocardial infarction (St-segment ran up or T-wave was shown as high sharp wave) in the electrocardiogram and the presence of local cyanosis in the heart. After 5 min of myocardial ischemia, the inner cannula was withdrawn, that is, the wire knot was released for reperfusion, and the electrocardiogram of reperfusion in the rat was recorded.
The administration was performed at 5 min before the ischemia by coronary artery ligation, and the administration mode was injection administration (sublingually).

[3] = Single-dose toxicity (MTD) in KM mice; format: in vivo; details: in vivo, po; KM mouse; single intragastrical administration; read-out: Maximum tolerance dose (MTD)
From the text: The results of the experimental study on the toxicity of Compound 369 administrated through a single intravenous or intragastrical administration in SD rats and KM mice are shown in Table 9.

With CN[C@H]1CC[C@]23C[C@]24CC[C@]2(C)C(C(C)=O)=CC[C@@]2(C)[C@@H]4CC[C@H]3C1(C)C [Compound 369, (3β,5α)-4,4,14-trimethyl-3-(methylamino)-9,19-cyclopregnan-16-en-20-one] the “Effect on APD, APD50 and APD90 (in words)” value ([1]; 0.0005 μM, 0.005 μM and 0.05 μM, concentration-dependent) was “can prolong APD, APD50 and APD90”, the percent change in action potential duration at 0.0005 µM ([1]; n = 6, x ± SD, 0.0005 μM) was 43.6% and the percent change in action potential duration at 0.005 µM ([1]; n = 6, x ± SD, 0.005 μM) was 43.5%. It also gave a percent change in action potential duration at 0.05 µM ([1]; n = 6, x ± SD, 0.05 μM) of 66.5%, a percent change in action potential duration at 0.0005 µM ([1]; screening stage, 0.0005 μM) of 26.8% and a percent change in action potential duration at 0.005 µM ([1]; screening stage, 0.005 μM) of 47.9%. The percent change in action potential duration at 0.05 µM ([1]; screening stage, 0.05 μM) was 65.7%, the “APD50, Change rate (%)” value ([1]; n = 6, x ± SD, 0.0005 μM) was 49.41% ± 16.99% and the “APD50, Post-administration” value ([1]; n = 6, x ± SD, 0.0005 μM) was 0.0572 ± 0.0247^a. For the same compound, the “APD90, Change rate (%)” value ([1]; n = 6, x ± SD, 0.0005 μM) was 44.30% ± 17.58%^b, the “APD90, Post-administration” value ([1]; n = 6, x ± SD, 0.0005 μM) was 0.0795 ± 0.0260^a and the “APD, Post-administration” value ([1]; n = 6, x ± SD, 0.0005 μM) was 0.0930 ± 0.0246^a. For the same compound, the “APD50, Pre-administration” value ([1]; n = 6, x ± SD, 0.0005 μM group) was 0.0365 ± 0.0183, the “APD90, Pre-administration” value ([1]; n = 6, x ± SD, 0.0005 μM group) was 0.0537 ± 0.0235 and the “APD50, Change rate (%)” value ([1]; n = 6, x ± SD, 0.005 μM) was 47.25% ± 28.78%. For the same compound, the “APD50, Post-administration” value ([1]; n = 6, x ± SD, 0.005 μM) was 0.0610 ± 0.0342^a, the “APD90, Change rate (%)” value ([1]; n = 6, x ± SD, 0.005 μM) was 40.25% ± 24.21%^b and the “APD90, Post-administration” value ([1]; n = 6, x ± SD, 0.005 μM) was 0.0838 ± 0.0345^a. For the same compound, the “APD, Post-administration” value ([1]; n = 6, x ± SD, 0.005 μM) was 0.1023 ± 0.0365^a, the “APD50, Pre-administration” value ([1]; n = 6, x ± SD, 0.005 μM group) was 0.0428 ± 0.0244 and the “APD90, Pre-administration” value ([1]; n = 6, x ± SD, 0.005 μM group) was 0.0604 ± 0.0243. For the same compound, the “APD50, Change rate (%)” value ([1]; n = 6, x ± SD, 0.05 μM) was 101.63% ± 62.10%^b, the “APD50, Post-administration” value ([1]; n = 6, x ± SD, 0.05 μM) was 0.0764 ± 0.0270^a and the “APD90, Change rate (%)” value ([1]; n = 6, x ± SD, 0.05 μM) was 70.81% ± 46.76%^b. The “APD90, Post-administration” value ([1]; n = 6, x ± SD, 0.05 μM) was 0.1006 ± 0.0242^a, the “APD, Post-administration” value ([1]; n = 6, x ± SD, 0.05 μM) was 0.1199 ± 0.0235^a and the “APD50, Pre-administration” value ([1]; n = 6, x ± SD, 0.05 μM group) was 0.0385 ± 0.0090. For the same compound, the “APD90, Pre-administration” value ([1]; n = 6, x ± SD, 0.05 μM group) was 0.0603 ± 0.0103, the “Effect on the APD value of the action potential of the papillary muscle (in words)” value ([1]; screening stage) was “the strongest effect” and the “Effect on the APD value of the action potential of the papillary muscle (in words)” value ([1]; screening stage, listed as Example 1) was “a certain degree of prolonged effects”. For the same compound, the “APD, Post-administration” value ([1]; screening stage, 0.0005 μM, about 20 min perfusion) was 0.0912, the “APD, Post-administration” value ([1]; screening stage, 0.005 μM, about 20 min perfusion) was 0.1031 and the “APD, Post-administration” value ([1]; screening stage, 0.05 μM, about 20 min perfusion) was 0.1168. For the same compound, the “Death (%)” value ([2]; 1 mg/kg) was 38%, the Death n ([2]; 1 mg/kg) was 3 and the “Ventricular fibrillation (%)” value ([2]; 1 mg/kg) was 63%. The Ventricular fibrillation n ([2]; 1 mg/kg) was 5, the “Ventricular premature beat (%)” value ([2]; 1 mg/kg) was 100% and the “Ventricular premature beat n” value ([2]; 1 mg/kg) was 8. The “Ventricular tachycardia (%)” value ([2]; 1 mg/kg) was 100%, the Ventricular tachycardia n ([2]; 1 mg/kg) was 8 and the “Death (%)” value ([2]; 10 mg/kg) was 0 (0) %. The Death n ([2]; 10 mg/kg) was 0 (0), the “Ventricular fibrillation (%)” value ([2]; 10 mg/kg) was 14% and the Ventricular fibrillation n ([2]; 10 mg/kg) was 1. For the same compound, the “Ventricular premature beat (%)” value ([2]; 10 mg/kg) was 86%, the “Ventricular premature beat n” value ([2]; 10 mg/kg) was 6 and the “Ventricular tachycardia (%)” value ([2]; 10 mg/kg) was 71%. The Ventricular tachycardia n ([2]; 10 mg/kg) was 5, the “Death (%)” value ([2]; 30 mg/kg) was 0 (0) % and the Death n ([2]; 30 mg/kg) was 0 (0). For the same compound, the “Ventricular fibrillation (%)” value ([2]; 30 mg/kg) was 0 (0) %, the Ventricular fibrillation n ([2]; 30 mg/kg) was 0 (0) and the “Ventricular premature beat (%)” value ([2]; 30 mg/kg) was 83%. The “Ventricular premature beat n” value ([2]; 30 mg/kg) was 5, the “Ventricular tachycardia (%)” value ([2]; 30 mg/kg) was 17% and the Ventricular tachycardia n ([2]; 30 mg/kg) was 1. For the same compound, the “Numbers of animals (incidences) with ventricular premature beat, ventricular tachycardia, ventricular fibrillation, and death vs vehicle (in words)” value ([2]; 1 to 30 mg/kg, dose-response relationship) was “lower” and the MTD [3] was 1000 mg/kg.

— patent publication US10568892B2, “Cycloartane tetracyclic triterpenoid compound, preparation method therefor and use thereof” (Hefei Cosource Pharmaceuticals Inc., priority 2016, dated 2020)
